In patent US12279611B2, “Method for controlling insects where an alkoxylated glycerol is applied to soil” (priority 2016, dated 2025):
Where “and” joins values, the source holds several entries; their conditions need not be identical. Equal entries are not always repeated.

Key:
[1] = Wetting front test (soil migration by capillary action in soil-filled tubes, wetting front measured by caliper); assay type: physicochemical; details: for Migration: single replicates
Protocol: • Polymer A: Polymer formed from glycerol and ethylene oxide and propylene oxide units; molecular weight about 3000 g/mol, hydroxyl number about 56 mg KOH/g, clear liquid, dynamic viscosity at 25° C. about 582 cP, density at 25° C. about 1.02 g/cm^3. • Polymer B: Liquid composition, 70 wt % Polymer A, 10 wt % nonionic surfactant (ethoxylated alcohol, HLB about 13, hydroxyl number about 125), 10 wt % anionic surfactant (dodecylbenzene calcium sulfonate), and 10 wt % 1,2-propylene glycol. • Surfactant A: liquid, nonionic ethoxylated tristyrylphenol, HLB 10-11. • Surfactant B: nonionic EO-PO-EO Triblockcopolymer, average molecular weight about 2500 Da, pour point −4° C., HLB 1-7, solubility in water at least 10 wt % at 25° C. • Surfactant C: Alkyl polyethylene glycol ether based on C10-Guerbet alcohol, HLB about 13, solubility in water at least 10 wt % at 23° C. • Surfactant D: Calcium dodecylbenzene sulfonate. • Silica Thickener: White powder, hydrophilic fumed silica, specific surface area (BET) about 200 m^2/g; average primary particle diameter 12 nm, tapped density about […]. Wetting Front Test Procedure
A fine nylon netting was adhered (Polyseamseal® Caulk, Henkel Corp) to one end each of 15 cm×1.5 cm plastic tubes. Tubes were filled with Greenville silt loam (sand:silt:clay, 22:58:20). As soil was added, tubes were tapped on the lab bench to loosely pack the soil (approximately 50 g soil per tube). Aqueous solutions of subject treatments were prepared. Solutions (4 ml) were added to glass beakers (50 ml capacity), and the soil-filled tubes were placed in the beakers. Each treatment was replicated 4 times. […] Means were separated at the […] via ANOVA followed by Tukey's HSD.

[2] = Wetting front test with segment analysis (soil segments extracted with acetonitrile, broflanilide quantified by HPLC-UV); assay type: physicochemical; details: Example 3; for Concentration of broflanilide in segment 0-2 cm (average of four replicates): soil segment 0-2 cm; for Concentration of broflanilide in segment 2-4 cm (average of four replicates): soil segment 2-4 cm; for Concentration of broflanilide in segment 4-6 cm (average of four replicates): soil segment 4-6 cm; for Concentration of broflanilide in segment 6-8 cm (average of four replicates): soil segment 6-8 cm; for Concentration of broflanilide in segment 8-10 cm (average of four replicates): soil segment 8-10 cm
Protocol: A fine nylon netting was adhered (Polyseamseal® Caulk, Henkel Corp) to one end each of 15 cm×1.5 cm plastic tubes. Tubes were filled with Greenville silt loam (sand:silt:clay, 22:58:20). As soil was added, tubes were tapped on the lab bench to loosely pack the soil (approximately 50 g soil per tube). Aqueous solutions of subject treatments were prepared. Solutions (4 ml) were added to glass beakers (50 ml capacity), and the soil-filled tubes were placed in the beakers. Each treatment was replicated 4 times. The solutions migrated upward into the soil via capillary action, and after 20 hours, the wetting front was measured in three locations using a digital caliper. Means were separated at the […] via ANOVA followed by Tukey's HSD. An aqueous solution comprising 600 ppm broflanilide was made from an aqueous suspension concentrate comprising 100 g/l broflanilide. Optionally 3000 ppm of Polymer B was added. The wetting front test was made as described above with another analytical method: The soil filled tubes (four replicates for both the sample with and without polymer) were separated in seven segments with each 2 cm long. The segment “0-2 cm” was the segment on the bottom which had direct contact to the aqueous solution of broflanilide. The segments (about 4.0 g each) were extracted twice with acetonitrile. The amount of broflanilide was quantified via HPLC with UV detection.

[3] = Example 2, 600 ppm broflanilide + 1500 ppm Polymer A, Greenville silt loam, 20 hours
[4] = Example 2, 600 ppm broflanilide + 3000 ppm Polymer A, Greenville silt loam, 20 hours
[5] = Example 2, 600 ppm broflanilide + 4200 ppm Polymer A, Greenville silt loam, 20 hours
[6] = Example 4, 600 ppm broflanilide + 300 ppm Polymer A, Greenville silt loam, 20 hours
[7] = Example 4, 600 ppm broflanilide + 600 ppm Polymer A, Greenville silt loam, 20 hours
[8] = Example 4, 600 ppm broflanilide + 1500 ppm Polymer A, Greenville silt loam, 20 hours
[9] = Example 4, 600 ppm broflanilide, no polymer, Greenville silt loam, 20 hours
[10] = 600 ppm broflanilide + 3000 ppm Polymer B
[11] = 600 ppm broflanilide, no polymer
[12] = Example 1, 600 ppm chlorfenapyr + 1200 ppm Polymer B, Greenville silt loam, 20 hours
[13] = Example 1, 600 ppm chlorfenapyr + 3000 ppm Polymer B, Greenville silt loam, 20 hours
[14] = Example 5, 600 ppm fipronil + 1200 ppm Polymer B, after 2 h
[15] = Example 5, 600 ppm fipronil + 1200 ppm Polymer B, after 20 h
[16] = Example 5, 600 ppm fipronil + 3000 ppm Polymer B, after 2 h
[17] = Example 5, 600 ppm fipronil + 3000 ppm Polymer B, after 20 h
[18] = Example 5, 600 ppm fipronil, no polymer, after 20 h

For `CN(C(=O)c1ccccc1)c1cccc(C(=O)Nc2c(Br)cc(C(F)(C(F)(F)F)C(F)(F)F)cc2C(F)(F)F)c1F` [Broflanilide, broflanilide], the “Average Migration” value [1, 3] was 9.29 cm, the Migration [1, 3] was 8.89 cm and 9.34 cm (2×) and 9.6 cm and the “Average Migration” value [1, 4] was 8.74 cm. The Migration [1, 4] was 8.53 cm and 8.62 cm and 8.60 cm and 9.19 cm, the “Average Migration” value [1, 5] was 8.79 cm and the Migration [1, 5] was 8.37 cm and 9.22 cm and 8.74 cm and 8.82 cm. For the same compound, the “Average Migration” value [1, 6] was 7.78 cm, the Migration [1, 6] was 7.90 cm and 7.72 cm and 7.71 cm and 7.80 cm and the “Average Migration” value [1, 7] was 7.98 cm. For the same compound, the Migration [1, 7] was 7.98 cm and 7.77 cm and 8.04 cm and 8.02 cm, the “Average Migration” value [1, 8] was 7.72 cm and the Migration [1, 8] was 7.73 cm and 7.69 cm and 7.82 cm and 7.64 cm. The “Average Migration” value [1, 9] was 6.89 cm, the Migration [1, 9] was 7.32 cm and 6.75 cm and 6.61 cm and 6.88 cm and the “Concentration of broflanilide in segment 0-2 cm (average of four replicates)” value [2, 10] was 170 ppm. The “Concentration of broflanilide in segment 2-4 cm (average of four replicates)” value [2, 10] was 36 ppm, the “Concentration of broflanilide in segment 4-6 cm (average of four replicates)” value [2, 10] was 16 ppm and the “Concentration of broflanilide in segment 6-8 cm (average of four replicates)” value [2, 10] was 4 ppm. For the same compound, the “Concentration of broflanilide in segment 8-10 cm (average of four replicates)” value [2, 10] was 0 ppm, the “Concentration of broflanilide in segment 0-2 cm (average of four replicates)” value [2, 11] was 127 ppm and the “Concentration of broflanilide in segment 2-4 cm (average of four replicates)” value [2, 11] was 51 ppm. For the same compound, the “Concentration of broflanilide in segment 4-6 cm (average of four replicates)” value [2, 11] was 3 ppm, the “Concentration of broflanilide in segment 6-8 cm (average of four replicates)” value [2, 11] was 0 ppm and the “Concentration of broflanilide in segment 8-10 cm (average of four replicates)” value [2, 11] was 0 ppm.

With `CCOCn1c(-c2ccc(Cl)cc2)c(C#N)c(Br)c1C(F)(F)F` [Chlorfenapyr, chlorfenapyr] the Migration ([1]; Example 1, 600 ppm chlorfenapyr (Phantom SC), no polymer, Greenville silt loam, 20 hours) was 7.7780 cm and 7.5100 cm and 7.6600 cm and 7.7640 cm, the “Average Migration” value [1, 12] was 8.39 cm and the Migration [1, 12] was 8.3770 cm and 8.3350 cm and 8.4290 cm and 8.4350 cm. For the same compound, the “Average Migration” value [1, 13] was 8.81 cm, the Migration [1, 13] was 8.7420 cm and 8.7610 cm and 8.8760 cm and 8.8460 cm and the “Average Migration” value ([1]; Example 1, 600 ppm chlorfenapyr, no polymer, Greenville silt loam, 20 hours) was 7.68 cm.

For `N#Cc1nn(-c2c(Cl)cc(C(F)(F)F)cc2Cl)c(N)c1[S+]([O-])C(F)(F)F` (stereo not drawn) [Fipronil, fipronil], the Migration ([1]; Example 5, 600 ppm fipronil (Termidor SC), no polymer, after 2 h) was 6.0 cm and 6.1 cm and 6.5 cm and 6.4 cm, the “Average Migration” value [1, 14] was 6.70 cm and the Migration [1, 14] was 6.5 cm and 7.0 cm and 6.7 cm and 6.6 cm. For the same compound, the “Average Migration” value [1, 15] was 7.93 cm, the Migration [1, 15] was 7.7 cm and 8.0 cm (3×) and the “Average Migration” value [1, 16] was 6.98 cm. For the same compound, the Migration [1, 16] was 7.1 cm and 7.0 cm (2×) and 6.8 cm, the “Average Migration” value [1, 17] was 8.40 cm and the Migration [1, 17] was 8.5 cm and 8.3 cm and 8.4 cm (2×). For the same compound, the “Average Migration” value ([1]; Example 5, 600 ppm fipronil, no polymer, after 2 h) was 6.25 cm, the “Average Migration” value [1, 18] was 7.38 cm and the Migration [1, 18] was 7.0 cm and 7.4 cm (2×) and 7.7 cm.
